Tests used:
[1] = system: human CD4+CD45RO+ T cells; test: Modulation of T cell differentiation by RAR agonists and antagonists; type: cell-based; details: 8 days culture, vs DMSO
Excerpt: Human CD4^+CD45RO^+ T cells were stimulated with an anti-CD3/CD28 antibody and IL-2, and cultured in the presence of DMSO as a control, or various RAR agonists (FIG. 30) or RAR antagonists (FIG. 31) for 8 days.

[2] = system: human CD4+CD45RO+ T cells; test: Resistance to apoptosis after anti-Fas antibody (7C11) stimulation; type: cell-based; details: 8 days culture, then anti-Fas antibody
Experimental: Human CD4^+CD45RO^+ T cells were cultured in the presence of DMSO (control), retinoic acid or an RAR antagonist (LE540) for 8 days, and then stimulated with an anti-Fas antibody (7C11). The proportion of apoptotic cells and the proportion of living cells were determined and analyzed. As a result, the apoptotic cells were increased and the living cells were decreased by enhancing the differentiation of cells by retinoic acid. In contrast, when the differentiation was suppressed by the RAR antagonist, the apoptotic cells were decreased and the living cells were increased (FIG. 20).

[3] = system: human CD4+CD45RO+ T cells; test: Enhancement of T cell differentiation by retinoic acid; type: cell-based; details: vs DMSO; stimulation with IL-2, anti-CD3/CD28 antibody, or both
Excerpt: Human CD4^+CD45RO^+ T cells were stimulated by various methods (IL-2, anti-CD3/CD28 antibody, and anti-CD3/CD28 antibody and IL2), and cultured in the presence of DMSO (control) or all-trans retinoic acid (hereinafter retinoic acid used in all Examples described below is all-trans retinoic acid). As a result, in the cell population cultured in the presence of retinoic acid, the proportion of central memory cells (upper right in a graph) was decreased, and the proportion of terminal effector cells (left lower in a graph) was increased (FIG. 19).

[4] = system: human CD4+CD45RO+ T cells; test: Ability to form memory T cell population after re-stimulation; type: cell-based; details: 8 days culture, re-stimulated and cultured for 7 days
Excerpt: Human CD4^+CD45RO^+ T cells were stimulated with an anti-CD3/CD28 antibody, cultured in the presence of DMSO (control), retinoic acid or an RAR antagonist (LE540) for 8 days, and re-stimulated and cultured with an anti-CD3/CD28 antibody and IL-2, or IL-7 for 7 days. The subsets of the T cells were identified.

[5] = system: Tumor cells expressing both WT1 protein and luciferase; test: Anti-tumor immunity induction with human WT1 peptide and RAR antagonist in NOG mice; type: in vivo, mouse; details: for survival period: intraperitoneal, compared with control (DMSO)
Experimental: Tumor cells expressing both WT1 protein and luciferase were subcutaneously implanted into a ventral part of NOD/Shi-scid, IL-2Rγnull mice (NOG mice). Three days after the implantation, 10^4 human WT1332-specific CD4^+ T cells (GPP positive) were injected intravenously (day 0). Eight hours after the intravenous injection, DMSO (control), retinoic acid or LE540 was administered intraperitoneally. One day after the intravenous injection, CD3^+ T cells were removed, and 2×10^6 human peripheral blood mononuclear cells which had been pulsed with the human WT1332 peptide were injected intravenously (day 1). Then, a survival period was observed. In addition, the amount of tumor was determined every week by administering luciferin which was a substrate for luciferase and measuring the intensity of emission induced by luciferase from outside the body.

[6] = system: human CD4+CD45RO+ T cells; test: Division ability and proliferation ability of memory T cells after re-stimulation; type: cell-based; details: 8 days culture, re-stimulated with anti-CD3/CD28 antibody and IL-2, or IL-7
Experimental: Human CD4^+CD45RO^+ T cells were stimulated with an anti-CD3/CD28 antibody, cultured in the presence of DMSO (control), retinoic acid or an RAR antagonist (LE540) for 8 days, re-stimulated with an anti-CD3/CD28 antibody and IL-2, or IL-7, and cultured. The division ability and proliferation ability of the T cells were evaluated. For evaluation of the division ability, Cell Trace (trade name) Violet Cell Proliferation Kit (manufactured by Life Technologies) was used. As a result, when the differentiation of T cells was enhanced by retinoic acid, both the division ability and the proliferation ability were decreased, whereas when the differentiation was suppressed by the RAR antagonist, both the division ability and the proliferation ability were increased (FIG. 21).

[7] = system: human CD4+ T cells transferred into NOG mouse; test: Reformation ability of cultured T cells in body of immunodeficient mouse; type: in vivo; details: T cells in spleen 4 weeks after transfer
Experimental: Human CD4^+CD45RO^+ T cells were stimulated with an anti-CD3/CD28 antibody, cultured in the presence of DMSO (control), retinoic acid or an RAR antagonist (LE540) for 8 days, and then transferred together with human PBMC from which T cells were removed into the body of an immunodeficient mouse lacking T cells, B cells and NK cells (NOG mouse). After 4 weeks, T cells in the spleen of the mouse were analyzed.

[8] = system: terminal effector fraction of human WT1332-specific CD4+ T cell clone; test: Induction of memory T cells from terminal effector T cells; type: cell-based
Excerpt: A terminal effector fraction contained in a human WT1332-specific CD4+ T cell clone derived from a single cell was stimulated with dendritic cells which had been pulsed with human WT1332, and cultured in the presence of DMSO (control), retinoic acid or an RAR antagonist (LE540) for 7 days. Then, the cells were labelled with CFSE, re-stimulated with dendritic cells which had been pulsed with human […], and further cultured in the presence of DMSO (control), retinoic acid or an RAR antagonist (LE540). After culturing for 4 or 6 days, the cells were subjected to an FACS analysis and a ^3H-thymidine incorporation assay (cell proliferation assay).

[9] = system: CD4+ T cells with human WT1332-specific TCR gene; test: WT1332-specific TCR-introduced CD4+ T cells: memory proportion and proliferation on re-stimulation; type: cell-based
Experimental: CD4^+ T cells into which a human WT1332-specific TCR gene was introduced were stimulated with human WT1332, and cultured in the presence of DMSO (control), retinoic acid or an RAR antagonist (LE540). As a result, when the T cells were cultured in the presence of the RAR antagonist, the proportion of memory-type CD4^+ T cells was increased (FIG. 24). Further, when the T cell population cultured in the presence of the RAR antagonist was re-stimulated with PBMC which had been pulsed with human WT1332, and cultured (T cell: 30,000 cells/well; PBMC: 100,000 cells/well; […]

[10] = system: human CD4+CD45RO+ T cells; test: Suppression of RDH10 expression by shRNA: composition of T cell population; type: cell-based; details: compared with T cell population expressing control shRNA
Excerpt: A construct to express an shRNA targeting retinol dehydrogenase 10 and consisting of a sequence set forth in SEQ ID NO:18 (RDH10-targeting shRNA) was introduced into human CD4^+CD45RO^+ T cells. Specifically, using a lentivirus vector system, packaging cells (293T cell line) were co-transfected with a vector in which a DNA consisting of a nucleotide sequence of SEQ ID NO:19 was incorporated into a cloning site and a packaging vector to produce a recombinant virus, and the human CD4^+CD45RO^+ T cells were infected with the recombinant virus. Integration of the shRNA expression construct into a chromosome was confirmed based on the expression of GFP as a reporter which was located downstream of the shRNA expression construct. In the T cell population in which the RDH10-targeting shRNA was expressed by such a method, the proportion of terminal effector cells ([…]) was decreased and the proportion of central memory cells (CD127^+, CD62L^+) was increased, as compared with a T cell population in which a control shRNA (SEQ ID NO:20) was expressed by the same method (FIG. 2).

[11] = system: human CD4+CD45RO+ T cells; test: Culture with anti-CD3, anti-CD28, IL-2 and retinol for a week: cell number and intracellular cytokine assay (IFN-γ); type: cell-based; details: various concentrations of retinol, one week; retinol concentration-dependent
Experimental: The RDH10-targeting shRNA (sh #10-2, SEQ ID NO:18), or an shRNA targeting luciferase (sh-luc, SEQ ID NO:20) as a control was introduced into human CD4^+CD45RO^+ T cells using a lentivirus vector. In the same way, a lentivirus vector in which an RDH10 gene was incorporated was introduced into human CD4^+CD45RO^+ T cells to produce RDH10 high-expression T cells.
These cells were cultured in the presence of an anti-CD3 antibody, an anti-CD28 antibody and IL-2 together with various concentrations of retinol (all-trans type) for a week. Then, the number of cells was measured and at the same time, the frequency of cells producing IFN-γ was determined by an intracellular cytokine assay.

## O=C(O)c1ccc2cc(-c3ccc(O)c(C45CC6CC(CC(C6)C4)C5)c3)ccc2c1 [CD437]
[1]
  expression of CD62L: decreased
  proportion of memory T cells (CD62L+CD127+ cells): decreased

## CN1c2cc3c(cc2N=C(c2ccc(C(=O)O)cc2)c2ccccc21)C(C)(C)CCC3(C)C [LE135]
[1]
  expression of CD62L: increased
  proportion of memory T cells (CD62L+CD127+ cells): increased

## CC1=C(/C=C/C(C)=C/C=C/C(C)=C/C(=O)O)C(C)(C)CCC1 [retinoic acid, all-trans retinoic acid]
[2]
  apoptotic cells: increased
  living cells: decreased
[3]
  proportion of central memory cells: decreased
  proportion of terminal effector cells: increased
[4]
  appearance frequency of memory T cells: low
[5]
  survival period: shortened
[1]
  expression of CD62L: decreased
  proportion of memory T cells (CD62L+CD127+ cells): decreased
[6]
  division ability of T cells: decreased
  proliferation ability of T cells: decreased

## CC1(C)CCC(C)(C)c2cc(C3(c4ccc5cc(C(=O)O)ccc5c4)SCCS3)ccc21 [MM11253]
[1]
  expression of CD62L: increased
  proportion of memory T cells (CD62L+CD127+ cells): increased

## CN1c2cc3c(cc2N=C(c2ccc(C(=O)O)cc2)c2ccc4ccccc4c21)C(C)(C)CCC3(C)C [LE540]
[2]
  apoptotic cells: decreased
  living cells: increased
[7]
  ability to proliferate in the body of the immunodeficient mouse: high ability to proliferate
  differentiation state of T cells in the mouse: undifferentiated
[8]; LE540
  induction of central memory CD4+ T cells from terminal effector CD4+ T cells: induced again
[8]; evaluation after re-stimulation
  generation of memory T cells having high division ability and high proliferation ability: generated
[9]; compared with cells cultured with DMSO or retinoic acid, no IL-2
  proliferation ability after re-stimulation with WT1332-pulsed PBMC: high proliferation ability
[9]; stimulated with human WT1332
  proportion of memory-type CD4+ T cells: increased
[4]
  appearance frequency of memory T cells: high frequency
[5]; day 21, compared with DMSO group and retinoic acid group
  tumor size (-fold increase relative to day 0): significantly small
[5]
  survival period: extended
[1]
  expression of CD62L: increased
  proportion of memory T cells (CD62L+CD127+ cells): increased
[6]
  division ability of T cells: increased
  proliferation ability of T cells: increased

## RDH10-targeting shRNA: shRNA targeting retinol dehydrogenase 10, sequence SEQ ID NO:18, expressed from a lentivirus vector (GUACACUUCUGGGCCACUGAACUUCCUGUCAUUUAGUGGUCCAGAAGUGUGC)
[10]
  proportion of central memory cells (CD127+, CD62L+): increased
  proportion of terminal effector cells: decreased

## CC1(C)CC=C(c2cnc3ccccc3c2)c2cc(C(=O)Nc3ccc(C(=O)O)cc3)ccc21 [BMS195614]
[1]
  expression of CD62L: increased
  proportion of memory T cells (CD62L+CD127+ cells): increased

## CCCCCCCCc1ccc(-c2ccc(C(=O)O)cc2)cc1 [AC55649]
[1]
  expression of CD62L: decreased
  proportion of memory T cells (CD62L+CD127+ cells): decreased

## CC1=C(/C=C/C(C)=C/C=C/C(C)=C/CO)C(C)(C)CCC1 [retinol, all-trans retinol]
[11]
  IFN-γ producing cells: increased
  number of cells: increased

## CC1(C)CCC(C)(C)c2cc(C(=O)Nc3ccc(C(=O)O)cc3)ccc21 [AM580]
[1]
  expression of CD62L: decreased
  proportion of memory T cells (CD62L+CD127+ cells): decreased

From US10947503B2, “Method for modifying T cell population” (International Institute of Cancer Immunology, Inc., priority 2014, dated 2021)
